# Results: EP0960886B1, “Peptide T and related peptides in the treatment of inflammation, including multiple sclerosis” (priority 1992, dated 1993)
# “And” between values parts separate entries of the source, which are not always exact repeats. Identical values can stand only once. “Also recorded” adds a separate entry of the source.
# Key:
# [1] = test system: Human umbilical vein endothelial cells; test: TNF-induced tissue factor expression on endothelial cells, ELISA (Example 6); assay type: cell-based; conditions: 100 units/ml human recombinant TNF, 4 h; Peptide T 0.5 to 100 µg/ml; triplicate cultures
# Method: Human umbilical vein endothelial cells were cultured in M199 medium supplemented with 10% foetal calf serum, endothelial cell growth factor, penicillin, streptomycin and L-glutamine in 96-well dishes using a modification of the procedure of Bevilaqua et al, Proc. Natl. Acad. Sci. USA 83 4533 (1986)). TNF treatment of cultures (100 units.ml) was for 4 h at 37°C in the presence of growth medium, after which the cells were washed and fixed. Cultures were, also treated with Peptide T + TNF or Peptide T alone. In these cultures Peptide T was at a concentration which ranged from 0.5 to 100 µg/ml. Tissue factor expression by the endothelial cells treated with TNF with or without peptide T was determined in an ELISA using a monoclonal antibody which neutralises the activity of human tissue factor (Carlbiochem A/S). Bound anti-tissue factor antibody was detected using peroxidase-conjugated rabbit anti-mouse Ig and the substrate ABST. Colour intensity was determined by the optical density of each well at 405nm.
# [2] = test system: K562 target cells; test: Macrophage cytotoxicity assay (two step, K562 target cells); assay type: cell-based
# Method: The MO/MAC cytotoxicity assay is a two step assay. After isolation of adherent cells (mainly MO/MAC) from PBMC, MO/MAC are activated by lymphokines (including IFN gamma and LPS. Subsequent to washing which removes activators, ^3H-thymidine labelled K562 target cells were added to activated MO/MAG and incubated for 3 days. The degree of cytotoxicity was proportional to the amount of radioactive label released into the culture supernatant, is shown in the following scheme : [drawing 8]
# [3] = test system: PBMC; test: Mixed lymphocyte reaction (Example 13); assay type: cell-based, human
# [4] = test system: PBMC; assay type: cell-based, human
# [5] = test system: IL-1; test: Serum IL-1 by RIA in patients with HIV disease; assay type: in vivo, human; conditions: one line per patient with HIV disease
# Source text: However, neopterin levels were elevated prior to Peptide T administration whereas serum IL-1 levels were normal.
# [6] = test system: HIV; conditions: 100 nM Peptide T; cited from earlier work
# [7] = test system: Molt-4 cells; test: PBMC mediated killing of Molt-4 cells; assay type: cell-based, human; conditions: Peptide T added on the first day of a four day culture
# Source text: When PBMC are mixed with allogeneic Molt-4 cells the growth of Molt-4 is inhibited (Figure 6). Alloreactive PBMC recognise Molt-4 as foreign and generate cytotoxic effector cells that kill Molt-4. Molt-4 is not a cytotoxic cell line and can not generate alloreactive effector cells. […] It is not possible to distinguish growth of alloreactive T cells from the growth of Molt-4 survivors since neither the growth of alloreactive T cells (Figure 5) nor the growth of Molt-4 (Table IX) would be affected by Peptide T.
# [8] = test system: PBMC; test: Mitogen-induced lymphoproliferation (Example 12); assay type: cell-based, human
# Method: Concanavalin A (Con A), pokeweed mitogen, (PWM) and phytohaemagglutin-P (PHA-P) were obtained from Sigma Chemical Co. (St. Louis, MO, USA). Peptide T was synthesised by Carlbiotech Ltd (Copenhagen, Denmark) and supplied as the chloride salt at 8.5 mg/ml in 0.9% benzyl alcohol as a preservative and was stored at 4°C. Peptide T was diluted to working solutions in culture medium (RPMI). Dilute solutions of Peptide T were prepared fresh from stock Peptide T for each experiment. ^3H-thymidine (5 Ci/mmol) was obtained from Amersham.
# Isolation of PBMC: Whole blood from healthy, adult volunteers was drawn into heparin and peripheral blood mononuclear cells (PBMC) isolated by density gradient centrifugation on HISTOPAQUE™ (Sigma Chemical Co). PBMC were removed from the interface, washed three times in RPMI containing gentamycin (100µg/ml) and resuspended to 1x10^6 PBMC/ml in RPMI containing 10% foetal bovine serum and gentamycin. 10^5 PBMC were cultured in the presence of 100µl of mitogen suspension in 96 well plates. The final concentration of mitogen was: PWM 25µg/ml; PHA 12.5µg/ml and Con A 6.25µg/ml. 10µl of Peptide T working solution (or RPMI as negative control) was added and cell cultures incubated for a total of 5 days in a humid atmosphere, 5% CO2, 37°C. Cultures were then pulsed with ^3H-thymidine (in RPMI) 18-24 hours prior to harvesting. The amount of incorporated ^3H-thymidine was determined using a BECKMAN™ LS8000 liquid scintillation counter and proliferation expressed as either counts per minute (cpm) or as a proliferation index (PI). PI=(cpm of (PBMC+mitogen))/(cpm of (PBMC+media)) [formula]
# All experiments were performed in triplicate. Results reported are characteristic of replicated experiments.
# Statistical Analyses: Data were analysed by a two sample ANOVA test using 95% confidence limits such that a value of p≤0.05 was considered a significant difference.
# [9] = test system: human monocyte chemotaxis; conditions: cited from earlier work
# [10] = test system: allogeneic PBMC; test: Two way MLR (Example 9); assay type: cell-based, human; conditions: without Peptide T 1365 ± 335
# Method: A two way MLR was performed using 10^5 allogeneic PBMC (cpm of A = 142 ± 86, B = 148 ± 84) cocultured in 200 µl of media as described in Table III.
# Peptide T given on the first day of an MLR will inhibit allogeneic induced proliferation of PBMC (Table IV).
smiles,measurement,setting,value
"C[C@@H](N)C(=O)N[C@@H](CO)C(=O)N[C@H](C(=O)N[C@H](C(=O)N[C@H](C(=O)N[C@@H](CC(N)=O)C(=O)N[C@@H](Cc1ccc(O)cc1)C(=O)N[C@H](C(N)=O)[C@@H](C)O)[C@@H](C)O)[C@@H](C)O)[C@@H](C)O [Peptide T, D-Ala-Ser-Thr-Thr-Thr-Asn-Tyr-Thr-NH2]",expression of tissue factor on endothelial cells,[1],inhibited
same,cytotoxicity of activated MO/MAC,[2]; Peptide T added concurrently with target cells or every day of the culture,able to inhibit
same,ability of resting MO/MAC to be activated,[2]; Peptide T added concurrently with the activators,did not affect
same,growth of lymphocytes in a mixed lymphocyte reaction,[3],did not affect
same,"lymphocytes responding to recall antigen (MMR), antibodies to CD3 or the superantigens SEB and TSST-1",[4],negligible effects
same,[IL-1],[5]; post-Peptide T,3.8 ± 0.12 fmol/100µl and 4.2 ± 0.07 fmol/100µl and 4.6 ± 0.11 fmol/100µl and 4.7 ± 0.05 fmol/100µl and 4.2 ± 0.02 fmol/100µl and 4.2 ± 0.26 fmol/100µl and 4.33 ± 0.003 fmol/100µl and 4.6 ± 0.02 fmol/100µl
same,[IL-1],[5]; pre-Peptide T (baseline),3.5 ± 0.14 fmol/100µl and 5.23 ± 0.17 fmol/100µl and 4.1 ± 0.01 fmol/100µl and 4.1 ± 0.03 fmol/100µl and 3.7 ± 0.03 fmol/100µl and 4.2 ± 0.14 fmol/100µl and 3.9 ± 0.13 fmol/100µl and 4.35 ± 0.06 fmol/100µl
same,reduction of reverse transcriptase,[6],ninefold reduction
same,PBMC-mediated inhibition of Molt-4 proliferation,[7],remains unaffected
same,concentration able to inhibit stimulated PBMC cultures,"[8]; Con A stimulated, as little as",0.001 pM
same,cytotoxicity for responding lymphocytes,[8]; Con A-induced proliferation measured daily,not cytotoxic
same,proliferation index ± standard deviation,"[8]; Con A, Peptide T 1x10^-9 M added Day 1, no Peptide T 21.0 ± 5.7",6.2 ± 0.5
same,proliferation index ± standard deviation,"[8]; Con A, Peptide T 1x10^-9 M added Day 2, no Peptide T 21.0 ± 5.7",6.0 ± 1.1
same,proliferation index ± standard deviation,"[8]; Con A, Peptide T 1x10^-9 M added Day 3, no Peptide T 21.0 ± 5.7",9.9 ± 0.1
same,proliferation index ± standard deviation,"[8]; Con A, Peptide T 1x10^-9 M added Day 4, no Peptide T 21.0 ± 5.7",9.5 ± 1.6
same,concentration able to inhibit stimulated PBMC cultures,[8]; PHA stimulated,0.1 pM
same,proliferation index ± standard deviation,"[8]; PHA, Peptide T 1x10^-9 M added Day 1, no Peptide T 197 ± 3",148 ± 13
same,proliferation index ± standard deviation,"[8]; PHA, Peptide T 1x10^-9 M added Day 2, no Peptide T 197 ± 3",101 ± 7
same,proliferation index ± standard deviation,"[8]; PHA, Peptide T 1x10^-9 M added Day 3, no Peptide T 197 ± 3",148 ± 7
same,proliferation index ± standard deviation,"[8]; PHA, Peptide T 1x10^-9 M added Day 4, no Peptide T 197 ± 3",131 ± 10
same,concentration able to inhibit stimulated PBMC cultures,"[8]; PWM stimulated, as little as",0.001 pM
same,proliferation index ± standard deviation,"[8]; PWM, Peptide T 1x10^-9 M added Day 1, no Peptide T 4.29 ± 0.25",3.13 ± 0.21
same,proliferation index ± standard deviation,"[8]; PWM, Peptide T 1x10^-9 M added Day 2, no Peptide T 4.29 ± 0.25",3.20 ± 0.20
same,proliferation index ± standard deviation,"[8]; PWM, Peptide T 1x10^-9 M added Day 3, no Peptide T 4.29 ± 0.25",2.65 ± 0.17
same,proliferation index ± standard deviation,"[8]; PWM, Peptide T 1x10^-9 M added Day 4, no Peptide T 4.29 ± 0.25",3.22 ± 0.28
same,mitogen induced proliferation of PBMC after exposure and washing,"[8]; exposure to Peptide T for 2 hours, cells washed before mitogen",inhibition of proliferation
same,Con A-induced lymphocyte proliferation measured daily,"[8]; growth period day 2-4, Peptide T 10^-9M, compared with growth in absence of the drug","paralleled, but at a reduced rate"
same,growth of PBMC in the absence of mitogen,[8]; no mitogen,negligible effects; also recorded: did not significantly affect
same,mitogen stimulation of PBMC after pre-incubation,[8]; pre-incubation with Peptide T for less than 30 minutes,no effect
same,agonist activity on human monocyte chemotaxis,[9],potent agonists
same,cpm ± SD,[10]; Peptide T 10^-0 mol/l,764 ± 77 cpm
same,cpm ± SD,[10]; Peptide T 10^-5 mol/l,649 ± 263 cpm
same,cpm ± SD,[10]; Peptide T 10^-7 mol/l,534 ± 108 cpm
same,cpm ± SD,[10]; Peptide T 10^-11 mol/l,681 ± 222 cpm
same,cpm ± SD,[10]; Peptide T 10^-13 mol/l,235 ± 4 cpm
same,cpm ± SD,[10]; Peptide T 10^-15 mol/l,371 ± 117 cpm
same,cpm ± SD,[10]; Peptide T 10^-17 mol/l,672 ± 261 cpm
